Experimental data reported in patent US6458824B1, “Solid preparation” (Dainippon Pharmaceutical Co., Ltd., priority 1999, dated 2002).

Legend:
Assay type in all cases: cell-based
[1] = biological target: T1, human β1-adrenergic receptor (Homo sapiens, UniProt P08588); assay: cAMP accumulation in CHO/pKREX23-30 cells highly expressing human β1-adrenergic receptor
T1 construct: expressed in transfected cells; host or cells: CHO (clone CHO/pKREX23-30)
Method: (§1) The cells were peeled off by incubation with phosphate-buffered saline containing 0.5 mM EDTA at 37° C. for 10 minutes after the medium was removed. The CHO/pKREX10-36 cells were collected by centrifugation, and suspended in Hanks' buffer (ICN Biomedicals) containing 1 mM L-ascorbic acid and 1 mM 3-isobutyl-1-methylxanthine at the concentration of about 5×10^5 cells/ml. This suspension (100 μl) and a test compound were mixed in the same buffer (500 μl) and incubated at 37° C. for 30 minutes, followed by boiling for 5 minutes to terminate the reaction. After centrifugation of the reaction mixture, the amount of cAMP in the supernatant was measured by using cAMP EIA System (Amersham).
(§2) Similarly, the amount of cAMP was measured in the same manner by using CHO/pKREX21-8 for highly expressing human β2-adrenergic receptor, or by using CHO/pKREX23-30 for highly expressing human β1-adrenergic receptor instead of the CHO/pKREX10-36 for highly expressing human β3-adrenergic receptor.

[2] = biological target: T2, human β3-adrenergic receptor (Homo sapiens, UniProt P13945); assay: cAMP accumulation in CHO/pKREX10-36 cells highly expressing human β3-adrenergic receptor
T2 construct: expressed in transfected cells; host or cells: CHO (clone CHO/pKREX10-36)
T2 sequence (P13945 whole entry): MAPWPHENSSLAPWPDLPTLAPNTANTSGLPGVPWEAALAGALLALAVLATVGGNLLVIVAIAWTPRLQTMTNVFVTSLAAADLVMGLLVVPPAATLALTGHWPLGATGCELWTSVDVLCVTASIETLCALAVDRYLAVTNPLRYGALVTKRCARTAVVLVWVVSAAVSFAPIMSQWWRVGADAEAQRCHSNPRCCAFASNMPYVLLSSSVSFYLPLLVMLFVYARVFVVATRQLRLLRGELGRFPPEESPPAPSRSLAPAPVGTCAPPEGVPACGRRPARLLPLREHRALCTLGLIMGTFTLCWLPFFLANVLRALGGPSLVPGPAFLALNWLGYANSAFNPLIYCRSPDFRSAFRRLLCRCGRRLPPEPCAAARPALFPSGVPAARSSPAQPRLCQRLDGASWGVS
Method: as §1

[3] = biological target: T3, human β2-adrenergic receptor (Homo sapiens, UniProt P07550); assay: cAMP accumulation in CHO/pKREX21-8 cells highly expressing human β2-adrenergic receptor
T3 construct: expressed in transfected cells; host or cells: CHO (clone CHO/pKREX21-8)
T3 sequence (P07550 whole entry): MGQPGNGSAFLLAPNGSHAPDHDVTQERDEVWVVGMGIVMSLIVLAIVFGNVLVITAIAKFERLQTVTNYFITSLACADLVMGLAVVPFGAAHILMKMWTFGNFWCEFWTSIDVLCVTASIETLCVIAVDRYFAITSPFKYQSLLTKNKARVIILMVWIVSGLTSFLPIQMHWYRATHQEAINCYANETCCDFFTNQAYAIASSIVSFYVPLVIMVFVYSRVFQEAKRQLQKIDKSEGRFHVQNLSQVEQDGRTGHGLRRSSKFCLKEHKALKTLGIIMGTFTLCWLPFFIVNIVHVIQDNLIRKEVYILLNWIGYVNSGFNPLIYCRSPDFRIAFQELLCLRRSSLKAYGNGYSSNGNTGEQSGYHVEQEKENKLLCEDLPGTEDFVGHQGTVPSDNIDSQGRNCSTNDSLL
Method: as §1, §2

T1 sequence (P08588 whole entry): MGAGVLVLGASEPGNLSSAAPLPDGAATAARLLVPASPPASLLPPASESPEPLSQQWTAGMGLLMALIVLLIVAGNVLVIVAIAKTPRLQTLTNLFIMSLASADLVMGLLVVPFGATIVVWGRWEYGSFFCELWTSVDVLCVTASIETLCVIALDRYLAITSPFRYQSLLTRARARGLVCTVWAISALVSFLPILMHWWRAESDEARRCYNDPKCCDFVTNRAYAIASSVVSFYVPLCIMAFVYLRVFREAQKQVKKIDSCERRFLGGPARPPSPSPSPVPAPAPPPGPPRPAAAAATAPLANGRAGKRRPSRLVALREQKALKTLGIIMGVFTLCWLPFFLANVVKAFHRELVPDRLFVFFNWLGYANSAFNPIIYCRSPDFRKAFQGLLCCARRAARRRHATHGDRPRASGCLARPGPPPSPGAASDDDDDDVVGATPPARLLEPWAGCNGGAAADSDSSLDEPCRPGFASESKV

- EC50 ([1]; cAMP accumulation, CHO/pKREX23-30): 3.5 nM
- stimulating activity of human β1-adrenergic receptor (in words) ([1]; conclusion from Table 1): quite weak
- Emax ([1]; relative maximal response, 10^-5 M (−)-isoproterenol = 100%, read-out: β1-receptor I.A. (intrinsic activity)): 83%
- EC50 ([2]; cAMP accumulation, CHO/pKREX10-36, 37° C. 30 minutes): 0.27 nM
- stimulating activity of human β3-adrenergic receptor (in words) ([2]; conclusion from Table 1): potent
- Emax ([2]; relative maximal response, 10^-5 M (−)-isoproterenol = 100%, read-out: β3-receptor I.A. (intrinsic activity)): 110%
- EC50 ([3]; cAMP accumulation, CHO/pKREX21-8): 21 nM
- stimulating activity of human β2-adrenergic receptor (in words) ([3]; conclusion from Table 1): quite weak
- Emax ([3]; relative maximal response, 10^-5 M (−)-isoproterenol = 100%, read-out: β2-receptor I.A. (intrinsic activity)): 45%
Compound: C[C@H](Cc1c[nH]c2c(OCC(=O)O)cccc12)NC[C@H](O)c1cccc(Cl)c1 [Compound A, [3-[(2R)-[[(2R)-(3-chlorophenyl)-2-hydroxyethyl]amino]propyl]-1H-indol-7-yloxy]acetic acid]
